Patent publication US20230150984A1, “NICOTINAMIDE MONONUCLEOTIDE AND NICOTINAMIDE RIBOSIDE DERIVATIVES AND USE THEREOF IN THE TREATMENT OF VIRAL INFECTIONS AND RESPIRATORY COMPLICATIONS, IN […] BY INFL[…] CORONAVIRUS” (NUVAMID SA, priority 2020, published 2023)
“Also recorded” adds a separate entry of the source.

Key:
H1N1 = test: NMN and NR on influenza virus pulmonary infection in mice (Example 7); format: in vivo; conditions: H1N1 infected mice; for Remaining mice, Day 11 / Remaining mice, Day 14: 12 per group, loss of 25% or more bodyweight counted as dead; for Remaining mice, Day 11 / Remaining mice, Day 14 / survival rate at the end of the experiment: I-A or I-G 185 mg/kg i.p. daily, Tamiflu 2x1 mg/kg oral; for body weight loss in comparison to vehicle: I-A or I-G 185 mg/kg, Tamiflu 2 mg/kg, D0 to D14
Method: The compounds I-A and I-G were delivered by intraperitoneal route at 185 mg/kg daily during all the experiment. 72 mice were daily weighed to adapt the volume of compounds. Physiological buffer was used as control and was administrated by i.p once per day during all the experiment. Control animals were orally administrated with Tamiflu at 2 mg/kg during all the experiment. Each animal has been infected with H1N1. The experimental groups are as follows: • vehicle: H1N1 infection+physiological buffer • Tamiflu: H1N1 infection+Tamiflu (2×1 mg/kg) • Compound I-A: H1N1 infection+NMN (185 mg/kg) • Compound I-G: H1N1 infection+NR (185 mg/kg) • Tamiflu+Compound I-A: H1N1 infection+Tamiflu (2×1 mg/kg)+Compound I-A (185 mg/kg) • Tamiflu+Compound I-G: H1N1 infection+Tamiflu (2×1 mg/kg)+Compound I-G (185 mg/kg)
Survival rates, body weight and clinical scores were monitored during all the experiment.
Survival rates (FIG. 7): Animals which lost 25% or more bodyweight, were euthanized for ethical reasons and considered as dead. Survival rates were monitored during all the experiment. […]
Respiratory scoring (FIG. 10): the respiratory scoring was assessed according to the following criteria: […]

[1] = tested on: Influenza virus H1N1 PR/8/34; test: Murine influenza virus H1N1 PR/8/34 pulmonary infection, lethal dose (Example 2); format: in vivo, mice; conditions: for body weight evolution D0 to D14 in comparison to vehicle / clinical score / clinical states of the mice D0 to D14: 500 PFU H1N1, I-A 185 mg/kg i.p., Tamiflu 1 mg/kg oral twice a day; for viral load in lung: 8 days after infection with 500 PFU of influenza A virus, vs vehicle group; for survival rate at D14: mice infected intranasally with 500 PFU H1N1 PR/8/34, Tamiflu 1 mg/kg oral gavage twice a day, D0-D14
[2] = tested on: Influenza virus H1N1 PR/8/34 strain; test: Compound I-A dose-response on influenza virus pulmonary infection (Example 8); format: in vivo, mice; conditions: for Remaining mice, Day 10 / Remaining mice, Day 14: 500 PFU H1N1 PR/8/34, 12 mice; for viral load in lung: 8 days after infection with 500 PFU of influenza A virus
Method: The model consists in intranasal administration of 500 PFU of Influenza virus H1N1 PR/8/34 strain to induce pneumonia. Compound I-A was delivered by intraperitoneal (i.p.) route at 90, 185 or 500 mg/kg immediately after infection and then daily during all the experiment. Mice were daily weighed to adapt the volume of compounds. Physiological buffer was used as control and was administrated by i.p once per day during all the experiment. Each experimental group comprises 22 mice: 12 mice for the survival study, 5 mice of the flow cytometry analysis and 5 mice for the assessment of viral load.
The experimental groups are the following: • Group 1: Vehicle (i.p.) • Group 2: Compound I-A 90 mg/kg • Group 3: Compound I-A 185 mg/kg • Group 4: Compound I-A 500 mg/kg
At day 8, 5 mice per group are use to measure the following parameters. • Blood collection: 3 aliquots (a, b and c) a)+ac. perchlorique (NAD dosage) b) immune cell characterization (cytometry) c) remaining plasma->freezing • Lung and lymph nodes collection, cell preparation, counting and immune cell characterization (cytometry) • Remaining cells (if any) from the 2 tissues treated for RNAseq • Viral load in the lungs (5 mice per group)
Survival rates, body weight, clinical scores, viral load in lungs and quantification of subsets of immune population in lung, blood and draining lymph node at day 8 post-infection by flow cytometry were monitored during all the experiment.
Survival (FIG. 11): Animals which lost 25% or more bodyweight, were euthanized for ethical reasons and considered as dead. Survival rates were monitored during all the experiment. […]

[3] = I-A 90, 185 or 500 mg/kg i.p. daily

NC(=O)c1ccc[n+]([C@@H]2O[C@H](COP(=O)(O)O)[C@@H](O)[C@H]2O)c1 [Compound I-A, Nicotinamide mononucleotide]
Remaining mice, Day 11 (H1N1): 7/12
Remaining mice, Day 14 (H1N1): 7/12
survival rate at the end of the experiment (H1N1): 58%
body weight loss in comparison to vehicle (H1N1): decrease the body weight loss
body weight evolution D0 to D14 in comparison to vehicle [1]: slight improvement
clinical score / clinical states of the mice D0 to D14 [1]: significantly improved clinical states
viral load in lung [1]: no impact
H1N1 induced lymphopenia in blood (T cells levels) ([1]; D8, cytometry on blood): reduced H1N1 induced lymphopenia
recruitment of monocyte-derived macrophages and dendritic cells and CD8+ T cells in infected lungs ([1]; D8 post-inoculation, cytometry on lung): reduced the recruitment
circulating monocytes ([1]; D8 post-inoculation, in comparison to vehicle and oseltamivir-treated animals): decreased circulating monocytes
animal mortality / efficacy on survival ([1]; I-A 185 mg/kg i.p. once a day, compared to untreated control animals or oseltamivir, 185 mg/kg): reduce animal mortality; also recorded: more effective than oseltamivir
survival rate at D14 ([1]; I-A 185 mg/kg i.p. once a day): 67%
mice survival rate ([2]; I-A 90 mg/kg i.p. daily): 33%
Remaining mice, Day 10 ([2]; I-A 90 mg/kg i.p. daily): 8/12
Remaining mice, Day 14 ([2]; I-A 90 mg/kg i.p. daily): 4/12
viral load in lung ([2]; I-A 90 mg/kg): no significative impact
mice survival rate ([2]; I-A 185 mg/kg i.p. daily): 58%
Remaining mice, Day 10 ([2]; I-A 185 mg/kg i.p. daily): 12/12
Remaining mice, Day 14 ([2]; I-A 185 mg/kg i.p. daily): 7/12
viral load in lung ([2]; I-A 185 mg/kg): no significative impact
mice survival rate ([2]; I-A 500 mg/kg i.p. daily): 75%
Remaining mice, Day 10 ([2]; I-A 500 mg/kg i.p. daily): 10/12
Remaining mice, Day 14 ([2]; I-A 500 mg/kg i.p. daily): 9/12
viral load in lung (quantity of H1N1 particles) ([2]; I-A 500 mg/kg, 8 days after infection, in comparison to the vehicle group): significantly reduced the quantity of H1N1 particles
body weight in comparison to vehicle (D3-D8) [2, 3]: weak improvement
clinical scores / clinical states of the mice compared to vehicle group [2, 3]: improved clinical states
modulation of the recruitment of monocyte derived macrophages ([2]; lung, day 8, flow cytometry): not observed
number of CD11b+DC ([2]; lung, day 8, flow cytometry): tended to be reduced
proportion of CD206+ macrophages ([2]; lung, day 8, flow cytometry): increased
destruction of alveolar macrophages due to the infection ([2]; lung, day 8, flow cytometry, effect did not seem dose dependent): reduced

NC(=O)c1ccc[n+]([C@@H]2O[C@H](CO)[C@@H](O)[C@H]2O)c1 [Compound I-G, NICOTINAMIDE RIBOSIDE]
Remaining mice, Day 11 (H1N1): 6/12
Remaining mice, Day 14 (H1N1): 6/12
survival rate at the end of the experiment (H1N1): 50%
body weight loss in comparison to vehicle (H1N1): decrease the body weight loss

CCOC(=O)C1=C[C@@H](OC(CC)CC)[C@H](NC(C)=O)[C@@H](N)C1 [Tamiflu, oseltamivir, reference compound]
Remaining mice, Day 11 (H1N1): 8/12
Remaining mice, Day 14 (H1N1): 6/12
survival rate at the end of the experiment (H1N1): 50%
body weight loss in comparison to vehicle (H1N1): decrease the body weight loss
body weight evolution D0 to D14 in comparison to vehicle [1]: slight improvement
clinical score / clinical states of the mice D0 to D14 [1]: significantly improved clinical states
viral load in lung [1]: no impact
survival rate at D14 ([1]; I-A 185 mg/kg i.p. once a day): 58%
